Test results: patent publication US20240366605A1, “USE OF QUINAZOLINONE COMPOUND FOR THE TREATMENT OF CANCER” (Hoffmann-La Roche Inc., priority 2021, published 2024)

How the values were obtained:
[1] = test system: subcutaneously implanted A375 tumours (BRAF V600E); test: Subcutaneous A375 luc melanoma model (peripheral disease); assay type: in vivo, mice
From the text: (§1) All animal experiments were approved by and performed according to the guidelines of the Institutional Animal Care Committee of the Vall d'Hebron Research Institute in agreement with the European Union and national directives. Female and male NOD scid gamma (NSG) mice of 4 to 5-week-old were purchased from Charles River.
For subcutaneous model, 5×10^6 A375 melanoma cells were subcutaneously injected into one flank of mice. Tumour growth was monitored with a Calipher.
The A375 cell line presenting BRAF V600E was used as melanoma model. The cell line was stably transduced with a luciferase expressing vector to facilitate tumor size monitoring. A375 luc were implanted subcutaneously to mimic peripheral disease and then randomized when tumors reached 100-300 mm^3. (10 mice/group). The mice were administered either Vehicle, Compound Ia 10 mg/kg (QD PO) or dabrafenib 100 mg/kg (QD PO). In a fourth treatment cohort, dabrafenib 100 mg/kg (QD PO) was administered until tumor relapse occurred, at which point dabrafenib treatment was discontinued and mice were instead treated with Compound Ia 10 mg/kg (QD PO).

[2] = test system: primary tumors from brain metastatic lesions progressing on BRAFi monotherapy or combination therapy with a MEKi; test: In vivo testing in primary tumors from brain metastatic lesions progressing on BRAFi or BRAFi/MEKi
[3] = test system: intracranially implanted A375 tumours (BRAF V600E); test: Intracranial A375 luc melanoma model (brain metastatic setting); assay type: in vivo, mice
From the text: as §1
For intracranial models, 5×10^5 A375 luc cells were stereotactically inoculated into the corpus striatum of the right brain hemisphere (1 mm anterior and 1.8 mm lateral to the […]; 2.5 mm intraparenchymal) of mice. Brain implanted tumors were monitored through regular Bioluminescence (BLI) signal detection and a relapse was determined upon observation of a progressive gradual increase of BLI signal.
The A375 cell line presenting BRAF V600E was used as melanoma model. The cell line was stably transduced with a luciferase expressing vector to facilitate tumor size monitoring. […] Brain implanted tumors were monitored through regular Bioluminescence (BLI) signal detection and a relapse was determined upon observation of a progressive gradual increase of BLI signal. […]
The A375 cell line presenting BRAF V600E was used as melanoma model. […] Brain implanted tumors were monitored through regular Bioluminescence (BLI) signal detection and a relapse was determined upon observation of a progressive gradual increase of BLI signal (total flux (p/s) was used to estimate tumour size). […]

[4] = relapse under dabrafenib 100 mg/kg QD PO, caliper

| SMILES | responses, peripheral lesions ([1]; peripheral compartment) | responses upon relapse to available BRAFi ([1]; switch to Compound Ia after relapse, peripheral lesions) | antitumor activity [2] | responses, brain metastatic lesions ([3]; brain compartment) | responses upon relapse to available BRAFi and BRAFi/MEKi co-treatment ([3]; switch to Compound Ia after relapse, brain lesions) | Tumour size in relapse (mean value) [1, 4] | Tumour size in relapse (range) [1, 4] |
| --- | --- | --- | --- | --- | --- | --- | --- |
| Cn1cnc2ccc(Oc3c(F)ccc(NS(=O)(=O)N4CC[C@@H](F)C4)c3C#N)cc2c1=O [Compound Ia, (3R)—N-[2-cyano-4-fluoro-3-(3-methyl-4-oxo-quinazolin-6-yl)oxy-phenyl]-3-fluoro-pyrrolidine-1-sulfonamide] | long lasting responses | dramatic responses | potent antitumor activity | long lasting responses | dramatic responses | – | – |
| CC(C)(C)c1nc(-c2cccc(NS(=O)(=O)c3c(F)cccc3F)c2F)c(-c2ccnc(N)n2)s1 [dabrafenib, reference compound] | – | – | – | – | – | 558 mm^3 | 300-700 mm3 |
